Measurements as given in patent US20260076937A1, “COMPOSITION FOR PREVENTING OR TREATING AUTOIMMUNE DISEASES COMPRISING A BCAT1 INHIBITOR” (Seoul National University R&DB Foundation, priority 2024, published 2026).
Entries after “also recorded” stand apart in the source; their conditions may differ.

Tested on: SKG mice
Assay: Curdlan-induced arthritis in SKG mice
Assay type: in vivo, mouse
Method: Eight-week-old female SKG mice used for induction of autoimmune arthritis [e.g., Rheumatoid Arthritis (RA)] were purchased from CLEA Japan (Tokyo, Japan). All mice were bred and managed in a sterile facility at Seoul National University School of Medicine. All experiments were approved by Seoul National University Institutional Animal Experimentation Ethics Committee (IACUC) (approval number: SNU-230825-2-2). At 8 weeks of age, 3 mg/mice curdlan (Wako, Japan) in 300 μl sterile PBS was injected intraperitoneally (i.p.) into mice. Ankle thickness was measured using calipers (Manostat, New York, NY). […] 0 point: no joint swelling; 0.1 point: single finger joint swelling; 0.5 point: minor swelling of wrist, ankle or tail base; 1.0 point: severe swelling of […], […] or tail base. Scores for all joints of each mouse were summed. Mice were euthanized at the end of the experiment and immune cells were extracted from inguinal lymph nodes (inguinal LNs) and joint cells.

[1] = Bi2 i.p. twice a week for 3 weeks

## O=C(NNS(=O)(=O)c1ccccc1C(F)(F)F)c1cc2cc(Cl)ccc2o1 [Bi2, BCATc inhibitor 2]
[1]
  ifng, tgfb1 expression in synovial cells: significantly reduced
  ratio of Th17 cells in CD3+CD4+ T cells in inguinal lymph nodes: significantly reduced
Bi2 i.p. twice a week for 3 weeks after curdlan
  arthritis score: significantly lower; also recorded: alleviates
